# Values of other authors as cited in patent US10143669B2, “Use of short chain fatty acids in cancer prevention” (Temple University-Of The Commonwealth System of Higher …, priority 2015, dated 2018).
# Tests used:
# [1] = test system: HBx transgenic mice; details: Arzumanyan A et al., Cancer Res, 2012
# [2] = test system: Hepatocellular carcinoma (HCC); details: Peck-Radosavljevic M, Liver Cancer, 2014
# [3] = test system: established tumor; details: Bindels L B et al., Br J Cancer, 2012
smiles,measurement,setting,value
CS(=O)(=O)c1ccc(C(=O)Nc2ccc(Cl)c(-c3ccccn3)c2)c(Cl)c1 [GDC-0449],number and size of tumors in HBx transgenic mice,[1],decreased the number and size of tumors
CNC(=O)c1cc(Oc2ccc(NC(=O)Nc3ccc(Cl)c(C(F)(F)F)c3)cc2)ccn1 [sorafenib],"life expectancy extended, average",[2],3 months
CCC(=O)O [proprionate],growth of an established tumor,[3],reduce the growth
